Laboratory results from US7632814B2, “HYD1 peptides as anti-cancer agents” (University of South Florida, priority 2006, dated 2009).
One block for each substance: values may come before it. Where no end group is shown, it is not given here. [ ]: non-standard residue; d: D form. 5(6)‑FAM = 5(6)-carboxyfluorescein

Assays:
β1 integrin = molecular target: T1, β1 integrin (Homo sapiens, UniProt P05556); assay: Binding of peptide to the cell surface
T1 construct: endogenous in cells
From the text: Another aspect of the invention concerns a method of identifying modulators of peptide binding (a screen for molecules that displace peptide binding). Agents that are identified as being capable of competing with the HYD1 peptides of the invention for binding to β1 integrin may have utility as cytotoxic agents for research or therapy (e.g., for cancer treatment). The method comprising providing a candidate agent (such as a chemical compound, antibody, nucleic acid, or peptide); and determining whether the agent inhibits (e.g., disrupts, prevents, or interferes with), the ability of a HYD1 peptide of the invention (HYD1 or a fragment or variant thereof) to bind to β1 integrin on a cell surface (e.g., cancer cell surface) and/or inhibit β1 integrin mediated adhesion, in vitro or in vivo (e.g., in an animal model). Preferably, the cell is a cancer cell such as a myeloma cell or a cell of other cancer types (see, for example Table 1). Preferably, the peptide is labeled with a detectable moiety (e.g., a fluorescent tag, such as […]) to facilitate the determining step. Examples of controls that may be utilized in carrying out the screening method include, but are not limited to, unlabeled HYD1 peptides (HYD1, or a fragment or variant thereof); scrambled peptides (such as HYD1S); β1 integrin blocking antibody; and non-specific surface antigen binding antibody (such as CD138 for myeloma cells). Advantageously, using the screening assay, labeled HYD1 or fragments or variants thereof, can be used to screen candidates such as small molecules, on natural product libraries, in a rapid, high-throughput fashion. […] Fluorescence polarization (FP) analysis can be used to screen small molecule or natural product libraries for discovery of novel compounds that mimic the specific binding and potentially the biological activity of HYD1. The FP assay is based on the extent of depolarization of the free versus bond peptide, which can be accurately measured on commercially available FP plate readers. […] In summary, a high throughput screen (HTS) can be used to bind small molecules prior to the addition of an HYD1 probe and molecules of interest can be identified by displacement of bond peptide, with a corresponding increase in unbound peptide by FP analysis. An analogous high-throughput binding assay based on fluorescence polarization, which allows screening for small molecules that bind to the STAT3 SH2 domain, is described in Schust J. and Berg T., Anal Biochem., 2004 Jul. 1; 330(1):114-8. […]

Myeloma cells = assay: Apoptotic activity of HYD1 variants in myeloma cells (cell line not stated); type: cell-based
Protocol: Myeloma cells were plated at a density of 400,000 cells per ml in a 24 well plate. Cells were treated with the indicated dose of the peptide for 24 hours. Following 24 hrs of peptide exposure, apoptotic cells were detected using Annexin V staining and FACS analysis. Ten thousand events were analyzed by flow cytometry (Becton Dickinson, San Jose, Calif.). Experiments were performed in triplicate and repeated twice. Shown is a representative figure.

prostate tumor cell = assay: Cell adhesion supported by immobilized HYD1 fragments and variants; type: cell-based; conditions: truncation and alanine substitution of HYD1
From the text: Defining the minimal region of HYD1 necessary to potentiate drug-induced apoptosis in suspension and adherent cultures is of interest. Below is a study to determine the minimal HYD1 sequence required to block prostate tumor cell migration. Similar studies as those outlined below and using the same peptide sequences will be used to determine the minimal amino acid sequence required for potentiation of drug induced apoptosis.
To determine the minimal element of immobilized HYD1 required for cell adhesion, the N and C terminus was systematically truncated one amino acid at a time (FIG. 14A). Most of the adhesion activity was retained with the deletion of lys-glycine from the C-terminus. However, the peptide no longer supported cell adhesion if the next residue, tryptophan was removed. Deletion of the N-terminus on the other hand, was tolerated very well until the third residue, methionine, was removed, leading to gradual decrease in cell binding.

H929 cells [1] = assay: Electron microscopy of double membrane vesicles; type: cell-based; conditions: 100 μg/ml, 4 hours
Protocol: H929 cells were treated with either 100 µg/ml HYD1 (FIG. 24A) or HYD1S (FIG. 24B) for four hours and processed for electron microscopy as described in materials and methods.
Electron Microscopy. H929 cells were treated for four hours with either 100 μg/ml HYD1 or HYD1S. After peptide treatment, the samples were fixed overnight in 2.5% glutaraldehyde in 0.1M phosphate buffer, pH 7.2 overnight at four degrees. Following fixation, the cells were rinsed 2 times for 10 minutes each in 0.1M phosphate buffer, pH 7.2, at 4° C. The cells were loosely pelleted in microcentrifuge tubes at 500×G for 3 minutes. The buffer was removed from the cells and replaced with 1% osmium tetroxide in the above buffer at 4° C. The cells were resuspended and post-fixed for 1 hour, then loosely pelleted and rinsed in the above buffer. This step was repeated for a total of 3 rinses of 5 minutes each, with the cells being resuspended after each buffer change. Cells were dehydrated through a graded series of acetone, 30%, 50%, 70%, and 95% acetone in water, 5 minutes per change with loose pelleting at 750×G for 5 minutes, then resuspension for each step. The cells were then dehydrated through three changes of 100% acetone, 10 minutes per change, with a 5 minute pelleting step at 1000×G, followed by resuspension in each step. […]

[2] = test system: DU145 prostate cancer cells; conditions: DeRoock et al. 2001; cited from earlier work
8226 cells = assay: HS-5 co-culture (SF+A) model of drug resistance, melphalan apoptosis; type: cell-based; conditions: 8226 cells co-cultured with HS-5, 50 μg/ml peptide, with melphalan
Protocol: (§1) Co-culture model. HS-5/GFP cells were plated at a density of 500,000 cells per ml and incubated overnight. Myeloma cells were incubated with vehicle control (water), 50 μg/ml HYD1 or 50 μg/ml HYD1S 30 minutes prior to the addition of myeloma cells (400,000 cell/ml) to either control plates or plates containing HS-5 cells. Myeloma cells were incubated with HS-5 cells for three hours prior to the addition of melphalan. Apoptotic cells were measured in GFP negative myeloma cells, by annexin PE staining and FACS analysis (n=9). ANOVO was performed to determine significance between conditions.
(§2) Briefly, 8226 myeloma cells were pre-incubated with varying concentrations of either HYD1 or the scrambled HYD1S peptide for 30 minutes prior to allowing cells to attach to FN for two hours. Following two hours of cell adhesion, the amount of cells adherent to FN was measured. The next objective was to determine whether treatment of tumor cells with HYD1 results in potentiation of melphalan induced cell death in the BMS co-culture model (SF+A). […] For these studies, the HYD1 and HYD1S were pre-incubated with the […] for 30 minutes, and then cells and culture media containing the peptide were placed into the S-5 culture dish. Myeloma cells were co-cultured for an additional 3 hours with HS-5 cells before the addition of melphalan. Twenty-four hours after drug treatment, apoptosis was measured by Annexin V-PE positive events by FACS analysis. The HS-5 cells constitutively express GFP and thus it is possible to gate GFP negative cells only (myeloma cells) for the apoptotic analysis.

H929 cells [3] = assay: as above; type: cell-based; conditions: H929 cells co-cultured with HS-5, 50 μg/ml peptide, with melphalan
Protocol: as §1, §2

H929 cells [4] = assay: Lysosensor staining of acidic vesicles, confocal microscopy; type: cell-based; conditions: 100 μg/ml, six hours, compared to control cells
Protocol: Lysosensor green was used to detect acidic compartments and live cell imaging was performed by confocal microscopy. Shown is a representative figure. The experiment was repeated three independent times and similar results were obtained.
Lysosensor staining. 35 mm glass bottom microwell dishes were incubated with 10 ul Cell-tak (BD biosciences San Jose, Calif.) and 290 ul 0.5M sodium bicarbonate (Sigma) for 30 minutes. The plates were aspirated and 200,000H929 or 8226 cells were plated. Cells were then treated with either water (VC), 100 μg/ml HYD1 or 100 μg/ml HYD1S for 6 hours. After the 6-hour incubation, the plates were aspirated and washed once with warm media. Media containing 1 μM lysosensor DND-189 (Molecular Probes, Carlsbad Calif.) and 20 μM Hoechst 33342 (Molecular Probes) was added and samples were incubated for an additional 30 minutes. Samples were analyzed with a Leica DMI6000 inverted TCS SP5 confocal scanner (Leica Microsystems, Germany). 405 Diode and Argon laser lines were applied to excite the samples and tunable filters were used to minimize the crosstalk between fluorochromes. Gain, offset, and pinhole setting were identical for all samples within the treatment group. Image sections at […] were captured with photomultiplier detectors and maximum projections were prepared with the LAS AF software version 1.6.0 build 1016 (Leica Microsystems, Germany).

[5] = test system: phospho Pyk2 in H929 cells; assay: Phospho-Pyk2 levels in suspension culture (immunoblot); type: cell-based; conditions: H929 cells cultured in suspension
From the text: Based upon the observation that HYD1 increased melphalan induced apoptosis in suspension cultures, whether treatment with HYD1 inhibits phosphorylation of a downstream mediator of β1 integrin signaling (Pyk2) in suspension cultures was investigated.

T1 sequence (P05556 21-798): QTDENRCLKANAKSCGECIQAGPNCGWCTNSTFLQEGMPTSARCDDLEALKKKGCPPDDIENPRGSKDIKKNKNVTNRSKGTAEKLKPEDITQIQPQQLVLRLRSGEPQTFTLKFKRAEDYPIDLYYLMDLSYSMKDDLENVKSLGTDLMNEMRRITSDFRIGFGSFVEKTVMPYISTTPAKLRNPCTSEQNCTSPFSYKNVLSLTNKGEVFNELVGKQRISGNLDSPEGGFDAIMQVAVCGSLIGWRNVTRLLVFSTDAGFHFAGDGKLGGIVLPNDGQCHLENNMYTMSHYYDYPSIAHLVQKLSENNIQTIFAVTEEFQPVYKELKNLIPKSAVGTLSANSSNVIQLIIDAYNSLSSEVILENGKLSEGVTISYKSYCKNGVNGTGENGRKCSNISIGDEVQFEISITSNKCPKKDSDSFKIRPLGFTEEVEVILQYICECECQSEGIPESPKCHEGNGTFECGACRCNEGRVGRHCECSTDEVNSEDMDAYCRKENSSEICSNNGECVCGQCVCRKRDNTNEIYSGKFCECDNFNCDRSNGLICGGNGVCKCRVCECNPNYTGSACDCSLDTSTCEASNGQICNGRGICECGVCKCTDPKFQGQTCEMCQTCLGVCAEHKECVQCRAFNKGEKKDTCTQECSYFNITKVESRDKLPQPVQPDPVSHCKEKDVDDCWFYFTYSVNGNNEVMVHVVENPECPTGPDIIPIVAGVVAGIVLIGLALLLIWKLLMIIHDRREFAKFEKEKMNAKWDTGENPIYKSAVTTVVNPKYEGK

binding to the cell surface (β1 integrin): binds to the cell surface
blocking of cell surface binding by β1 integrin antibody (β1 integrin): can be blocked
Substance: FAM-HYD1: HYD1 with R=5(6)-FAM (carboxyfluorescein) ({5(6)‑FAM}-[dK][dI][dK][dM][dV][dI][dS][dW][dK]G)
biological activity of conjugated HYD1 (Myeloma cells): retains biological activity

Substance: ikmvisw (IKMVISW; HYD1 fragment)
cell adhesion supported by immobilized peptide (prostate tumor cell): retained full cell adhesion activities

Substance: wiksmkivkg ([dW][dI][dK][dS][dM][dK][dI][dV][dK]G) [HYD1S, reference compound]
formation of double membranes / vesicles (EM) (H929 cells [1]): small vesicles fused with lysosomes were observed
inhibition of cell adhesion to extracellular matrixes [2]: not to inhibit cell adhesion
potentiation of melphalan-induced apoptosis in the SF+A model (8226 cells): but not the scrambled peptide (HYD1S) potentiates melphalan-induced cell death
potentiation of melphalan-induced apoptosis in the SF+A model (H929 cells [3]): but not the scrambled peptide (HYD1S) potentiates melphalan-induced cell death
number and size of acidic vesicles (H929 cells [4]): large vesicles noted with HYD1 treatment in both the lysosensor staining and EM analysis were not detected
phospho Pyk2 levels [5]: but not HYD1S reduces phospho Pyk2 levels
